In brackets after ≈: the same amount, converted by molar mass. Activity calls are given as the source filed them. No cut-off for these calls is given here.
What was measured:
Pseudomonas aeruginosa [1] = experiment: Antibacterial activity against Pseudomonas aeruginosa MTCC 1688 assessed as growth inhibition at 12.5 to 1000 ug/mL after 24 hr by NCCLS broth dilution method; format: functional, organism-based
Aspergillus niger [2] = experiment: Antifungal activity against Aspergillus niger MTCC 282 assessed as growth inhibition after 48 hr by broth dilution method; format: functional; conditions: MTCC 282, 48 h
Aspergillus clavatus [3] = experiment: Antifungal activity against Aspergillus clavatus MTCC 1323 assessed as growth inhibition after 48 hr by broth dilution method; format: functional; conditions: MTCC 1323, 48 h
Aspergillus clavatus [4] = experiment: Antifungal activity against Aspergillus clavatus MTCC 1323 assessed as growth inhibition at 12.5 to 1000 ug/mL after 48 hr by broth dilution method; format: functional, organism-based
Escherichia coli [5] = experiment: Antibacterial activity against Escherichia coli MTCC 443 assessed as growth inhibition at 12.5 to 1000 ug/mL after 24 hr by NCCLS broth dilution method; format: functional, organism-based
Candida albicans [6] = experiment: Antifungal activity against Candida albicans MTCC 227 assessed as growth inhibition at 12.5 to 1000 ug/mL after 48 hr by broth dilution method; format: functional, organism-based
Staphylococcus aureus [7] = experiment: Antibacterial activity against Staphylococcus aureus MTCC 96 assessed as growth inhibition at 12.5 to 1000 ug/mL after 24 hr by NCCLS broth dilution method; format: functional, organism-based
Streptococcus pyogenes [8] = experiment: Antibacterial activity against Streptococcus pyogenes MTCC 442 assessed as growth inhibition at 12.5 to 1000 ug/mL after 24 hr by NCCLS broth dilution method; format: functional, organism-based
Escherichia coli [9] = experiment: Antibacterial activity against Escherichia coli MTCC 443 assessed as growth inhibition after 24 hr by NCCLS broth dilution method; format: functional; conditions: MTCC 443, 24 h
Staphylococcus aureus [10] = experiment: Antibacterial activity against Staphylococcus aureus MTCC 96 assessed as growth inhibition after 24 hr by NCCLS broth dilution method; format: functional; conditions: MTCC 96, 24 h
Pseudomonas aeruginosa [11] = experiment: Antibacterial activity against Pseudomonas aeruginosa MTCC 1688 assessed as growth inhibition after 24 hr by NCCLS broth dilution method; format: functional; conditions: MTCC 1688, 24 h
Streptococcus pyogenes [12] = experiment: Antibacterial activity against Streptococcus pyogenes MTCC 442 assessed as growth inhibition after 24 hr by NCCLS broth dilution method; format: functional; conditions: MTCC 442, 24 h
Candida albicans [13] = experiment: Antifungal activity against Candida albicans MTCC 227 assessed as growth inhibition after 48 hr by broth dilution method; format: functional; conditions: MTCC 227, 48 h
Aspergillus niger [14] = experiment: Antifungal activity against Aspergillus niger MTCC 282 assessed as growth inhibition at 12.5 to 1000 ug/mL after 48 hr by broth dilution method; format: functional, organism-based

MIC (Aspergillus niger [2]) [µg/mL] | MIC (Aspergillus clavatus [3]) [µg/mL] | MIC (Escherichia coli [9]) [µg/mL] | MIC (Staphylococcus aureus [10]) [µg/mL] | MIC (Pseudomonas aeruginosa [11]) [µg/mL] | MIC (Streptococcus pyogenes [12]) [µg/mL] | MIC (Candida albicans [13]) [µg/mL] | Compound | growth inhibition (GI) (Pseudomonas aeruginosa [1]) | growth inhibition (GI) (Aspergillus clavatus [4]) | growth inhibition (GI) (Escherichia coli [5]) | growth inhibition (GI) (Candida albicans [6]) | growth inhibition (GI) (Staphylococcus aureus [7]) | growth inhibition (GI) (Streptococcus pyogenes [8]) | growth inhibition (GI) (Aspergillus niger [14])
250 (≈ 748 µM) | 250 (≈ 748 µM) | – | – | – | – | – | COc1ccccc1/C=C1/N=C(C)N(c2ccc(C(C)=O)cc2)C1=O | inactive | inactive | inactive | inactive | inactive | inactive | –
250 (≈ 579 µM) | 100 (≈ 232 µM) | 500 (≈ 1160 µM) | 100 (≈ 232 µM) | 250 (≈ 579 µM) | 100 (≈ 232 µM) | 500 (≈ 1160 µM) | CC1=N/C(=C\c2cccc(C)c2)C(=O)N1c1ccc(/C(C)=N/N=C2/NC(=O)CS2)cc1 | – | – | – | – | – | – | –
– | 1000 (≈ 3120 µM) | 1000 (≈ 3120 µM) | 1000 (≈ 3120 µM) | – | – | 1000 (≈ 3120 µM) | CC(=O)c1ccc(N2C(=O)/C(=C\c3ccc(O)cc3)N=C2C)cc1 | inactive | – | – | – | – | inactive | inactive
50 (≈ 115 µM) | 100 (≈ 231 µM) | 50 (≈ 115 µM) | 50 (≈ 115 µM) | 100 (≈ 231 µM) | 50 (≈ 115 µM) | 50 (≈ 115 µM) | CC1=N/C(=C\c2ccc(O)cc2)C(=O)N1c1ccc(/C(C)=N/N=C2/NC(=O)CS2)cc1 | – | – | – | – | – | – | –
500 (≈ 1080 µM) | 500 (≈ 1080 µM) | 100 (≈ 216 µM) | 250 (≈ 541 µM) | 500 (≈ 1080 µM) | 100 (≈ 216 µM) | 500 (≈ 1080 µM) | CC1=N/C(=C\c2ccccc2[N+](=O)[O-])C(=O)N1c1ccc(/C(C)=N/N=C2/NC(=O)CS2)cc1 | – | – | – | – | – | – | –
500 (≈ 1200 µM) | 500 (≈ 1200 µM) | 1000 (≈ 2400 µM) | 250 (≈ 599 µM) | 500 (≈ 1200 µM) | 1000 (≈ 2400 µM) | 1000 (≈ 2400 µM) | CC1=N/C(=C\c2ccccc2)C(=O)N1c1ccc(/C(C)=N/N=C2/NC(=O)CS2)cc1 | – | – | – | – | – | – | –
250 (≈ 577 µM) | 250 (≈ 577 µM) | 250 (≈ 577 µM) | 100 (≈ 231 µM) | 250 (≈ 577 µM) | 250 (≈ 577 µM) | 500 (≈ 1150 µM) | CC1=N/C(=C\c2cccc(O)c2)C(=O)N1c1ccc(/C(C)=N/N=C2/NC(=O)CS2)cc1 | – | – | – | – | – | – | –
– | – | – | 500 (≈ 1270 µM) | 500 (≈ 1270 µM) | 500 (≈ 1270 µM) | – | CC1=N/C(=C/c2ccc(O)cc2)C(=O)N1c1ccc(/C(C)=N/NC(N)=S)cc1 | – | Active | inactive | Active | – | – | Active
– | – | – | 500 (≈ 1230 µM) | 500 (≈ 1230 µM) | 500 (≈ 1230 µM) | – | COc1ccc(/C=C2/N=C(C)N(c3ccc(/C(C)=N/NC(N)=S)cc3)C2=O)cc1 | – | Active | inactive | Active | – | – | Active
– | – | – | 500 (≈ 1270 µM) | 500 (≈ 1270 µM) | 500 (≈ 1270 µM) | – | CC1=N/C(=C/c2ccccc2O)C(=O)N1c1ccc(/C(C)=N/NC(N)=S)cc1 | – | Active | inactive | Active | – | – | Active
250 (≈ 559 µM) | 250 (≈ 559 µM) | 250 (≈ 559 µM) | 500 (≈ 1120 µM) | 100 (≈ 223 µM) | 50 (≈ 112 µM) | 500 (≈ 1120 µM) | COc1ccc(/C=C2\N=C(C)N(c3ccc(/C(C)=N/N=C4/NC(=O)CS4)cc3)C2=O)cc1 | – | – | – | – | – | – | –
– | 1000 (≈ 3120 µM) | – | – | – | – | 1000 (≈ 3120 µM) | CC(=O)c1ccc(N2C(=O)/C(=C\c3ccccc3O)N=C2C)cc1 | inactive | – | inactive | – | inactive | inactive | –
100 (≈ 232 µM) | 250 (≈ 579 µM) | 250 (≈ 579 µM) | 25 (≈ 57.9 µM) | 250 (≈ 579 µM) | 25 (≈ 57.9 µM) | 500 (≈ 1160 µM) | CC1=N/C(=C\c2ccccc2C)C(=O)N1c1ccc(/C(C)=N/N=C2/NC(=O)CS2)cc1 | – | – | – | – | – | – | –
500 (≈ 1150 µM) | 500 (≈ 1150 µM) | 250 (≈ 574 µM) | 100 (≈ 230 µM) | 250 (≈ 574 µM) | 500 (≈ 1150 µM) | 500 (≈ 1150 µM) | CC1=N/C(=C\c2ccc(F)cc2)C(=O)N1c1ccc(/C(C)=N/N=C2/NC(=O)CS2)cc1 | – | – | – | – | – | – | –
500 (≈ 1150 µM) | 500 (≈ 1150 µM) | 250 (≈ 574 µM) | 500 (≈ 1150 µM) | 500 (≈ 1150 µM) | 100 (≈ 230 µM) | 1000 (≈ 2300 µM) | CC1=N/C(=C\c2ccccc2F)C(=O)N1c1ccc(/C(C)=N/N=C2/NC(=O)CS2)cc1 | – | – | – | – | – | – | –
250 (≈ 541 µM) | 100 (≈ 216 µM) | 500 (≈ 1080 µM) | 250 (≈ 541 µM) | 100 (≈ 216 µM) | 250 (≈ 541 µM) | 500 (≈ 1080 µM) | CC1=N/C(=C\c2ccc([N+](=O)[O-])cc2)C(=O)N1c1ccc(/C(C)=N/N=C2/NC(=O)CS2)cc1 | – | – | – | – | – | – | –
– | – | – | 500 (≈ 1280 µM) | 500 (≈ 1280 µM) | 500 (≈ 1280 µM) | – | CC1=N/C(=C/c2ccc(C)cc2)C(=O)N1c1ccc(/C(C)=N/NC(N)=S)cc1 | – | Active | inactive | Active | – | – | Active
– | – | 1000 (≈ 2540 µM) | 500 (≈ 1270 µM) | – | – | – | CC1=N/C(=C/c2cccc(O)c2)C(=O)N1c1ccc(/C(C)=N/NC(N)=S)cc1 | inactive | Active | – | Active | – | inactive | Active
12.5 (≈ 29 µM) | 50 (≈ 116 µM) | 50 (≈ 116 µM) | 12.5 (≈ 29 µM) | 250 (≈ 579 µM) | 25 (≈ 57.9 µM) | 250 (≈ 579 µM) | CC1=N/C(=C\c2ccc(C)cc2)C(=O)N1c1ccc(/C(C)=N/N=C2/NC(=O)CS2)cc1 | – | – | – | – | – | – | –
250 (≈ 785 µM) | 250 (≈ 785 µM) | 1000 (≈ 3140 µM) | 1000 (≈ 3140 µM) | – | – | – | CC(=O)c1ccc(N2C(=O)/C(=C\c3ccc(C)cc3)N=C2C)cc1 | inactive | inactive | – | inactive | – | inactive | –
1000 (≈ 2210 µM) | 1000 (≈ 2210 µM) | 500 (≈ 1110 µM) | 500 (≈ 1110 µM) | 100 (≈ 221 µM) | 250 (≈ 553 µM) | 1000 (≈ 2210 µM) | CC1=N/C(=C\c2ccccc2Cl)C(=O)N1c1ccc(/C(C)=N/N=C2/NC(=O)CS2)cc1 | – | – | – | – | – | – | –
500 (≈ 1110 µM) | 250 (≈ 553 µM) | 1000 (≈ 2210 µM) | 250 (≈ 553 µM) | 250 (≈ 553 µM) | 100 (≈ 221 µM) | 500 (≈ 1110 µM) | CC1=N/C(=C\c2ccc(Cl)cc2)C(=O)N1c1ccc(/C(C)=N/N=C2/NC(=O)CS2)cc1 | – | – | – | – | – | – | –
50 (≈ 115 µM) | 100 (≈ 231 µM) | 100 (≈ 231 µM) | 250 (≈ 577 µM) | 25 (≈ 57.7 µM) | 100 (≈ 231 µM) | 100 (≈ 231 µM) | CC1=N/C(=C\c2ccccc2O)C(=O)N1c1ccc(/C(C)=N/N=C2/NC(=O)CS2)cc1 | – | – | – | – | – | – | –
100 (≈ 283 µM) | 100 (≈ 283 µM) | – | – | – | – | 500 (≈ 1420 µM) | COC1=CC(=O)C[C@@H](C)[C@]12Oc1c(Cl)c(OC)cc(OC)c1C2=O [GRISEOFULVIN] | – | – | – | – | – | – | –
100 (≈ 223 µM) | 25 (≈ 55.9 µM) | 250 (≈ 559 µM) | 50 (≈ 112 µM) | 50 (≈ 112 µM) | 100 (≈ 223 µM) | 500 (≈ 1120 µM) | COc1ccccc1/C=C1\N=C(C)N(c2ccc(/C(C)=N/N=C3/NC(=O)CS3)cc2)C1=O | – | – | – | – | – | – | –

Compound | MIC (Aspergillus niger [2]) [µg/mL] | MIC (Aspergillus clavatus [3]) [µg/mL] | MIC (Escherichia coli [9]) [µg/mL] | MIC (Staphylococcus aureus [10]) [µg/mL] | MIC (Pseudomonas aeruginosa [11]) [µg/mL] | MIC (Streptococcus pyogenes [12]) [µg/mL] | MIC (Candida albicans [13]) [µg/mL] | growth inhibition (GI) (Pseudomonas aeruginosa [1]) | growth inhibition (GI) (Aspergillus clavatus [4]) | growth inhibition (GI) (Escherichia coli [5]) | growth inhibition (GI) (Candida albicans [6]) | growth inhibition (GI) (Staphylococcus aureus [7]) | growth inhibition (GI) (Streptococcus pyogenes [8]) | growth inhibition (GI) (Aspergillus niger [14])
CC1(C)S[C@@H]2[C@H](NC(=O)[C@H](N)c3ccccc3)C(=O)N2[C@H]1C(=O)O [AMPICILLIN] | – | – | 250 (≈ 715 µM) | 100 (≈ 286 µM) | 100 (≈ 286 µM) | 100 (≈ 286 µM) | – | – | – | – | – | – | – | –
